Patent US8946282B2, “Indolin-2-one derivatives as protein kinase inhibitors” (Annji Pharmaceutical Co., Ltd., priority 2012, dated 2015)

How the values were obtained:
aurora B = aurora B (Homo sapiens, UniProt Q96GD4); test: radioisotope-based P81 filter-binding assay, aurora B kinase; assay type: biochemical; details: for inhibition at 1 µM: compound at 1.0 μM, mean values (n=2), read-out: percent inhibition of enzyme catalytic activity, Aur B (numbers in parentheses); for IC50: averaged from two independent dose-response curves, read-out: Enzyme assay IC50 Aur B
Protocol: (§1) Compounds of formula (I)-(IV) were evaluated for abilities in inhibiting protein kinases aurora B and FLT-3 activity using radioisotope-based P81 filter-binding assay (Table 1).

[1] = test system: MV4-11 human acute myelomonocytic leukemia cells; test: anti-proliferation, SRB colorimetric assay, MV4-11; assay type: cell-based; details: concentration required for 50% growth inhibition
Protocol: (§2) HCT116 human colorectal carcinoma cells (Table 3), HepG2 human hepatocellular carcinoma cells (Table 4), and MV4-11 human acute myelomonocytic leukemia cells (Table 5). Cells were treated with the test compound and the concentration required for 50% growth inhibition (IC50) determined by sulfomodamine B (SRB) colorimetric assay.

[2] = test system: HepG2 human hepatocellular carcinoma cells; test: anti-proliferation, SRB colorimetric assay, HepG2; assay type: cell-based; details: concentration required for 50% growth inhibition, read-out: IC50 (μM, mean ± S.D.)
Description: HCT116 human colorectal carcinoma cells (Table 3), HepG2 human hepatocellular carcinoma cells (Table 4), and MV4-11 human acute myelomonocytic leukemia cells (Table 5).

FLT-3 = molecular target: T1, FLT-3 (Homo sapiens, UniProt P36888); test: radioisotope-based P81 filter-binding assay, FLT-3 kinase; assay type: biochemical; details: for IC50: averaged from two independent dose-response curves, read-out: Enzyme assay IC50 FLT-3
T1 sequence (P36888 27-993): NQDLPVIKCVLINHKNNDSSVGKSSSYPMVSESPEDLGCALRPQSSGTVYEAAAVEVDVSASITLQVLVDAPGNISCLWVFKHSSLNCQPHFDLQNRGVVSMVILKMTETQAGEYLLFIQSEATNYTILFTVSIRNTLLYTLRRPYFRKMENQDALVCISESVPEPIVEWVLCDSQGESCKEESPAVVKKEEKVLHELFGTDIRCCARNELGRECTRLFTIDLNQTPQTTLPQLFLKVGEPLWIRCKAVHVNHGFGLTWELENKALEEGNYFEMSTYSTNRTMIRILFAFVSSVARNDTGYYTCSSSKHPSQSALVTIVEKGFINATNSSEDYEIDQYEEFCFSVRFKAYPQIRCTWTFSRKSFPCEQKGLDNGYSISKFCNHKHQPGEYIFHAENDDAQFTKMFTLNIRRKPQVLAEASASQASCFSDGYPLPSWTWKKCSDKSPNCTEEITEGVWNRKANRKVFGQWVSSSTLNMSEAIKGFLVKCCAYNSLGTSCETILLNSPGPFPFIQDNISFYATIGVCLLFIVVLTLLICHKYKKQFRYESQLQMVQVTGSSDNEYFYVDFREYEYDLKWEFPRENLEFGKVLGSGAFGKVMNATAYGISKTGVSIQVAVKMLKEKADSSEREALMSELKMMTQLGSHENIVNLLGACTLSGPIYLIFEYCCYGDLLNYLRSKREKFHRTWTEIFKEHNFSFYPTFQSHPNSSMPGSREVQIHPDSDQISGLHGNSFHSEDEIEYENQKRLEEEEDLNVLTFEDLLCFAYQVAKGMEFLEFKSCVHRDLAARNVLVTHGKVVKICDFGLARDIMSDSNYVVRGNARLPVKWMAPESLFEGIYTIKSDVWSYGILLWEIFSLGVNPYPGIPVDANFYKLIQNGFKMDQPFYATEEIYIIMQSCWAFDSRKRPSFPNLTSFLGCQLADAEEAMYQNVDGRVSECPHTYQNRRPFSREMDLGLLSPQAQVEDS
Protocol: as §1

[3] = test system: A549 human lung carcinoma cells; test: anti-proliferation, SRB colorimetric assay, A549; assay type: cell-based; details: concentration required for 50% growth inhibition, read-out: IC50 (μM, mean ± S.D.)
[4] = test system: HCT116 human colorectal carcinoma cells; test: anti-proliferation, SRB colorimetric assay, HCT116; assay type: cell-based; details: HCT-116, concentration required for 50% growth inhibition, read-out: IC50 (μM, mean ± S.D.)
Protocol: as §2

aurora B, sequence (Q96GD4 whole entry): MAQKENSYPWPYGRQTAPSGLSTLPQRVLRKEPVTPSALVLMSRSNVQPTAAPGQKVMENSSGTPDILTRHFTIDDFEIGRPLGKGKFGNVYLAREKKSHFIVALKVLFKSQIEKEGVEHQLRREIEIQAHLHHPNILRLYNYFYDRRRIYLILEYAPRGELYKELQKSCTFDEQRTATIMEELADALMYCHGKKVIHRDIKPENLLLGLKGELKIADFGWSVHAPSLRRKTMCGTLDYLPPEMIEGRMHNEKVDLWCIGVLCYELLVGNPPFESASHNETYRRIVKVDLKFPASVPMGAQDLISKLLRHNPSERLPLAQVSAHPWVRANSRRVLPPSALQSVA

| Structure (SMILES) | inhibition at 1 µM (aurora B) [%] | melting point | IC50 [1] [nM] | IC50 [2] [µM] | IC50 (FLT-3) [nM] | IC50 [3] [µM] | inhibition at 1 µM (FLT-3; compound at 1.0 μM, mean values (n=2), read-out: percent inhibition of enzyme catalytic activity, FLT-3 (numbers in parentheses)) [%] | IC50 (aurora B) [nM] | IC50 [4] [µM] |
| --- | --- | --- | --- | --- | --- | --- | --- | --- | --- |
| COc1ccc(C(=O)NC(=O)Nc2ccc3c(c2)/C(=C/c2ccc[nH]2)C(=O)N3)cc1 [D14, (Z)—N-(3-((1H-pyrrol-2-yl)methylene)-2-oxoindolin-5-ylcarbamoyl)-4-methoxybenzamide] | 39.3 | 285 to 290 °C (dec.) | 0.07 | 0.64 ± 0.01 | 201 | 0.73 ± 0.02 | – | – | – |
| COc1ccc(C(=O)NC(=O)Nc2cccc3c2NC(=O)/C3=C\c2ccc[nH]2)cc1 [D16, (Z)—N-(3-((1H-pyrrol-2-yl)methylene)-2-oxoindolin-7-ylcarbamoyl)-4-methoxybenzamide] | 7.3 | 253 to 258 °C (dec.) | – | 0.84 ± 0.01 | – | 0.99 ± 0.08 | 6.9 | – | – |
| O=C(NC(=O)c1ccc(Cl)c(Cl)c1)Nc1ccc2c(c1)NC(=O)/C2=C\c1ccc[nH]1 [D26, (Z)—N-(3-((1H-pyrrol-2-yl)methylene)-2-oxoindolin-6-ylcarbamoyl)-3,4-dichlorobenzamide] | – | 295 to 300 °C (dec.) | 1.13 | 0.63 ± 0.04 | > 1000 | – | – | 7.7 | – |
| Cc1ccc(C(=O)NC(=O)Nc2ccc3c(c2)NC(=O)/C3=C\c2[nH]c(C)c(C(=O)O)c2C)cc1 [D39, (Z)-2,4-dimethyl-5-((6-(3-(4-methylbenzoyl)ureido)-2-oxoindolin-3-ylidene)-methyl)-1H-pyrrole-3-carboxylic acid] | – | 295 to 300 °C (dec.) | 7.21 | 0.63 ± 0.21 | 265 | 0.77 ± 0.11 | – | 2.5 | – |
| COc1ccc(C(=O)NC(=O)Nc2ccc3c(c2)NC(=O)/C3=C\c2[nH]c(C)c(C(=O)O)c2C)cc1 [D41, (Z)-5-((6-(3-(4-methoxybenzoyl)ureido)-2-oxoindolin-3-ylidene)-methyl)-2,4-di-methyl-1H-pyrrole-3-carboxylic acid] | – | – | – | 0.73 ± 0.13 | 180 | 0.48 ± 0.05 | – | 1.9 | – |
| Cc1[nH]c(/C=C2\C(=O)Nc3cc(NC(=O)NC(=O)c4ccccc4F)ccc32)c(C)c1C(=O)O [D53, (Z)-5-((6-(3-(2-fluorobenzoyl)ureido)-2-oxoindolin-3-ylidene)methyl)-2,4-dimethyl-1H-pyrrole-3-carboxylic acid] | – | 264 to 269 °C (dec.) | 8.07 | 0.85 ± 0.11 | 508 | 0.63 ± 0.08 | – | 3.7 | – |
| COc1ccc(C(=O)NC(=O)Nc2ccc3c(c2)NC(=O)/C3=C\c2[nH]c(C)c(C(=O)NCCN(C)C)c2C)c(F)c1 [D68] | – | – | – | 0.74 ± 0.07 | 16.2 | 0.47 ± 0.01 | – | 10.5 | 0.87 ± 0.06 |
| COc1ccc(C(=O)NC(=O)Nc2ccc3c(c2)NC(=O)/C3=C\c2[nH]c(C)c(C(=O)NCCN3CCCC3)c2C)c(F)c1 [D70, (Z)-5-((6-(3-(2-fluoro-4-methoxybenzoyl)ureido)-2-oxoindolin-3-ylidene)methyl)-2,4-dimethyl-N-(2-(pyrrolidin-1-yl)ethyl)-1H-pyrrole-3-carboxamide] | – | – | – | 0.68 ± 0.03 | 0.5 | 0.56 ± 0.05 | – | 0.4 | 0.85 ± 0.08 |
| O=C(CC(=O)Nc1ccc2c(c1)NC(=O)/C2=C\c1ccc[nH]1)Nc1ccc(F)cc1 [D75, (Z)—N^1-(3-((1H-pyrrol-2-yl)methylene)-2-oxoindolin-6-yl)-N^3-(4-fluorophenyl)malonamide] | – | – | – | – | – | 0.69 ± 0.05 | – | 25 | – |
| Cc1[nH]c(/C=C2\C(=O)Nc3cc(NC(=O)N4CCN(C5CC5)C4=O)ccc32)c(C)c1CC(=O)O [D97, (Z)-2-(5-((6-(3-cyclopropyl-2-oxoimidazolidine-1-carboxamido)-2-oxoindolin-3-ylidene)methyl)-2,4-dimethyl-1H-pyrrol-3-yl)acetic acid] | – | – | – | 0.87 ± 0.05 | 113 | 0.83 ± 0.04 | – | 2.7 | – |
| O=C1Nc2cc(NC(=O)c3cccn(-c4ccc(Cl)c(Cl)c4)c3=O)ccc2/C1=C/c1ccc[nH]1 [D110, (Z)—N-(3-((1H-pyrrol-2-yl)methylene)-2-oxoindolin-6-yl)-1-(3,4-dichlorophenyl)-2-oxo-1,2-dihydropyridine-3-carboxamide] | – | – | 2.4 | 0.82 ± 0.03 | 59.9 | – | – | > 1000 | 0.85 ± 0.13 |

Second part, the molecule after the results:

| inhibition at 1 µM (aurora B) [%] | melting point | IC50 [1] [nM] | IC50 [2] [µM] | IC50 (FLT-3) [nM] | IC50 [3] [µM] | inhibition at 1 µM (FLT-3; compound at 1.0 μM, mean values (n=2), read-out: percent inhibition of enzyme catalytic activity, FLT-3 (numbers in parentheses)) [%] | IC50 (aurora B) [nM] | IC50 [4] [µM] | Structure (SMILES) |
| --- | --- | --- | --- | --- | --- | --- | --- | --- | --- |
| – | 295 to 296 °C | 0.02 | 0.9 ± 0.2 | 8.6 | 0.7 ± 0.2 | – | 791 | – | O=C1Nc2cc(NC(=O)c3cccn(-c4ccc(F)cc4)c3=O)ccc2/C1=C/c1ccc[nH]1 [D107, (Z)—N-(3-((1H-pyrrol-2-yl)methylene)-2-oxoindolin-6-yl)-1-(4-fluorophenyl)-2-oxo-1,2-dihydropyridine-3-carboxamide] |
| – | > 300 °C | 7.18 | – | 27.7 | 0.49 ± 0.03 | – | 38.8 | – | O=C1Nc2cc(NC(=O)c3c[nH]cc(-c4ccccc4)c3=O)ccc2/C1=C/c1ccc[nH]1 [D127] |
| – | > 300 °C | 1.83 | – | 38.1 | 0.45 ± 0.07 | – | 128 | – | O=C1Nc2cc(NC(=O)c3c[nH]cc(-c4ccc(F)cc4)c3=O)ccc2/C1=C/c1ccc[nH]1 [D129, (Z)—N-(3-((1H-pyrrol-2-yl)methylene)-2-oxoindolin-6-yl)-5-(4-fluorophenyl)-4-oxo-1,4-dihydropyridine-3-carboxamide] |
| – | > 300 °C | 12.8 | 0.56 ± 0.02 | 86.6 | – | – | 179 | – | Cc1cc(C)c(/C=C2\C(=O)Nc3cc(NC(=O)c4c[nH]cc(-c5ccc(F)cc5)c4=O)ccc32)[nH]1 [D140, (Z)—N-(3-((3,5-dimethyl-1H-pyrrol-2-yl)methylene)-2-oxoindolin-6-yl)-5-(4-fluorophenyl)-4-oxo-1,4-dihydropyridine-3-carboxamide] |
| – | 283 °C (dec.) | 0.05 | 0.65 ± 0.11 | 1.4 | 0.55 ± 0.05 | – | 70.5 | – | Cc1[nH]c(/C=C2\C(=O)Nc3cc(NC(=O)c4c[nH]cc(-c5ccc(F)cc5)c4=O)ccc32)c(C)c1C(=O)N1CCN(C)CC1 [D149, (Z)—N-(3-((3,5-dimethyl-4-(4-methylpiperazine-1-carbonyl)-1H-pyrrol-2-yl)methylene)-2-oxoindolin-6-yl)-5-(4-fluorophenyl)-4-oxo-1,4-dihydropyridine-3-carboxamide] |
| – | > 300 °C | 0.1 | 0.7 ± 0.07 | 10.3 | 0.57 ± 0.04 | – | 91.6 | – | Cc1[nH]c(/C=C2\C(=O)Nc3cc(NC(=O)c4c[nH]cc(-c5ccc(F)cc5)c4=O)ccc32)c(C)c1CC(=O)N1CCN(C)CC1 [D150, (Z)—N-(3-((3,5-dimethyl-4-(2-(4-methylpiperazin-1-yl)-2-oxoethyl)-1H-pyrrol-2-yl)methylene)-2-oxoindolin-6-yl)-5-(4-fluorophenyl)-4-oxo-1,4-dihydropyridine-3-carboxamide] |
| – | 250 °C | 0.34 | 0.88 ± 0.13 | 4.8 | 0.66 ± 0.07 | – | 107 | – | Cc1[nH]c(/C=C2\C(=O)Nc3cc(NC(=O)c4c[nH]cc(-c5ccc(F)cc5)c4=O)ccc32)c(C)c1CCC(=O)N1CCN(C)CC1 [D151, (Z)—N-(3-((3,5-dimethyl-4-(3-(4-methylpiperazin-1-yl)-3-oxopropyl)-1H-pyrrol-2-yl)methylene)-2-oxoindolin-6-yl)-5-(4-fluorophenyl)-4-oxo-1,4-dihydropyridine-3-carboxamide] |
